The record followed here is patent publication US6855727B2, “Muscular fatigue-controlling composition and method for providing muscular fatigue-controlling effect” (Yaizu Suisankagaku Industry Co., Ltd., priority 2000, dated 2005).

Molecules are shown by their SMILES.

The nature of the assay: lactic acid amount in plasma after loading of exercise. In kind it is in vivo. Particulars: Test Example 2; mice, 200 mg/kg oral (total amount); 1 hour after loading of exercise (FIG. 6). As for the experimental part: Further, when 1 hour passed after the loading of exercise, the blood was collected and the plasma was separated, and the lactic acid amount in the plasma was measured. The measurement of lactic acid amount was carried out with a commercially available kit (trade name: “F-kit L-lactic acid”; manufactured by Beringer Mannheim Co.). […] Further, when 1 hour passed after the loading of exercise, the blood was collected and the plasma was separated, and the lactic acid amount in the plasma was measured in the same manner as in TEST EXAMPLE 1.

As for `O=C[C@H](O)[C@H](O)[C@H](O)CO` [ribose, D-ribose], the “lactic acid amount in the plasma, decrease as compared with the control group” value came to 29.4%.
